Assay results taken from US20140274684A1, “Compounds, Compositions, and Methods for Altering Behavior of Insects Or Other Organisms” (BAYER CROPSCIENCE LP, priority 2013, published 2014).

Tested on: honeybees
Assay: honeybee repulsion experiment at feeding stations with 50% sucrose
Type: in vivo
Conditions: 2% by weight in 50% sucrose
Method: FIG. 1 describes the feeding station arrangement (A and B) for the honeybee repulsion experiments described herein. As set forth in FIG. 1, panel (A) sets forth the bee cage positions on the left portion of panel (A) with the randomized feeding station positions on the right portion of panel (A). Panel (B) sets forth an alignment of the randomized feeding station positions with a distance of two meters between feeding stations. A total of eight feeding stations were evaluated at a ten meter distance in front of the respective bee hives. The feeding stations were placed two meters apart from one another.
Honeybees were trained to deep feeders (eight positions), each containing a 50% sucrose solution for one day. After the honeybees were trained to each feeder, the 50% sucrose feeder at randomized positions 1-8 was replaced with a shallow feeder containing a combination of repelling compounds and a 50% sucrose solution according to Table 5. In accordance with FIGS. 5 and 6, 2% by weight of Camphor oil (T4), Ajowan oil (T5), Camphor powder (T6), Rosemary oil (T7), and 2-Decanone (T8) in combination with a 50% sucrose treatment were added to feeders on day two.
Table 5 describes active agents evaluated for bee repulsion and their randomized feeding station positions. As described in Table 5, T1 (control), T2 (control), T3 (control), T4 (Camphor oil), T5 (Ajowan oil), T6 (Camphor powder), T7 (Rosemary oil), and T8 (2-Decanone).
FIG. 5 evaluates the number of bees visiting a respective feed station over a time interval. FIG. 6 sets forth the mean number of honeybees visiting feeding station over a period of four hours.

For `CCCCCCCCC(C)=O` [2-Decanone, 2-decanone], the “repellency to honeybees visiting feeding station” value (shortened to “repellency”) (at/after 24 hours) was “exhibited repellency”, the “repellency” value (at/after 24 hours, listed as 2-decanone) was “still repellent” and the “repellency” value (full 4 hour assessment period) was “highly repellent”.
